Legend:
NCI-H358 (K-Ras G12C) = experiment: CellTiter-Glo cell viability assay, 5-day treatment; format: cell-based; settings: Homo sapiens, NCI-H358, 120 h, 5-day treatment; read-out: H358 Cell Viability assay data (K-Ras G12C, IC50)
In short: (§1)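 Luminescence read-out after 5 days of compound exposure, with plates first brought to room temperature for roughly 30 minutes. Values are percent of averaged DMSO wells, fitted by four-parameter logistic regression.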

Capan-1 (K-Ras G12V) = experiment: as above; format: cell-based; settings: Homo sapiens, CAPAN-1, 120 h, 5-day treatment; read-out: Capan-1 Cell Viability assay data (K-Ras G12V, IC50)
In short: as §1

KRAS G13D = KRAS G13D (Homo sapiens, UniProt P01116+P62937, G13D); experiment: Disruption of BRAF RBD interaction with Ras (FRET / MOA assay, with Cyclophilin A); format: biochemical; settings: KRAS G13D; read-out: KRAS G13D FRET data IC50
Chain of KRAS G13D (P01116 1-169 isoform P01116-2 G13D limits assumed): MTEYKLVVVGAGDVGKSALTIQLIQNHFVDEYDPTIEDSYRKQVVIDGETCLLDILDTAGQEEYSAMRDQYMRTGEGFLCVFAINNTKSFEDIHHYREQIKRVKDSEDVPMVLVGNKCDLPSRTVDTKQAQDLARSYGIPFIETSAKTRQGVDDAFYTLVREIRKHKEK
Chain of KRAS G13D (P62937 whole entry): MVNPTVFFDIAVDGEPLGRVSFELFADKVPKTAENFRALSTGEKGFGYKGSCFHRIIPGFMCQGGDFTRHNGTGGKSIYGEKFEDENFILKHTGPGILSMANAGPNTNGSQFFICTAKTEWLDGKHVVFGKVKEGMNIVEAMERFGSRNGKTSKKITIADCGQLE
In short: (§2)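 IC50 values reflect loss of K-Ras binding to BRAF RBD, read as a lowered TR-FRET ratio compared with DMSO, driven by compound-mediated K-Ras:Cyclophilin A complex formation. Compound top dose 30 μM final, 3-fold steps, 3 h incubation at 25 °C before a 1.5 h antibody step.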

KRAS G13C = KRAS G13C (Homo sapiens, UniProt P01116+P62937, G13C); experiment: as above; format: biochemical; settings: read-out: KRAS G13C FRET data, IC50
Chain of KRAS G13C (P01116 1-169 isoform P01116-2 G13C): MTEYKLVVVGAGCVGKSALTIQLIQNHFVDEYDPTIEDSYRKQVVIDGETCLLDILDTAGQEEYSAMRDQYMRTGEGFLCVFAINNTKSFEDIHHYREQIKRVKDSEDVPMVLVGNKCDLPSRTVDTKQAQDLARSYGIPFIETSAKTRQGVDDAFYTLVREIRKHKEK
Chain of KRAS G13C (P62937 whole entry): as the sequence (P62937 whole entry) above
In short: as §2

KRAS G12C = KRAS G12C (Homo sapiens, UniProt P01116+P62937, G12C); experiment: as above; format: biochemical; settings: read-out: KRAS G12C FRET data, IC50
Chain of KRAS G12C (P01116 1-169 isoform P01116-2 G12C): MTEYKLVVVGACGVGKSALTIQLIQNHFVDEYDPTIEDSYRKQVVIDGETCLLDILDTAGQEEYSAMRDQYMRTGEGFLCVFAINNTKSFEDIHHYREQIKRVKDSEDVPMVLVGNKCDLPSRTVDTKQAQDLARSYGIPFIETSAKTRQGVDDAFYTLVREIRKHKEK
Chain of KRAS G12C (P62937 whole entry): as the sequence (P62937 whole entry) above
In short: as §2

KRAS G12V = KRAS G12V (Homo sapiens, UniProt P01116+P62937, G12V); experiment: as above; format: biochemical; settings: KRAS G12V; read-out: KRAS G12V FRET data IC50
Chain of KRAS G12V (P01116 1-169 isoform P01116-2 G12V limits assumed): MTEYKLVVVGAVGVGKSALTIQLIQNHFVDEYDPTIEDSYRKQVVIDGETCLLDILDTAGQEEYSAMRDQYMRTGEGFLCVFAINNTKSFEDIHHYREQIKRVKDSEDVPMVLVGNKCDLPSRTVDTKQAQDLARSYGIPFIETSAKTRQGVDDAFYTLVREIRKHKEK
Chain of KRAS G12V (P62937 whole entry): as the sequence (P62937 whole entry) above
In short: as §2

KRAS WT = KRAS WT (Homo sapiens, UniProt P01116+P62937); experiment: as above; format: biochemical; settings: KRAS WT; read-out: KRAS WT FRET data IC50
Chain of KRAS WT (P01116 1-169 isoform P01116-2 limits assumed): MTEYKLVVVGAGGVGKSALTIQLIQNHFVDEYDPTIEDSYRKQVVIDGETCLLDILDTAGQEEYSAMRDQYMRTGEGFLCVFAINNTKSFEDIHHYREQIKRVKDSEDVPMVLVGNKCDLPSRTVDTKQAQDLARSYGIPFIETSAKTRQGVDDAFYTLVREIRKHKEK
Chain of KRAS WT (P62937 whole entry): as the sequence (P62937 whole entry) above
In short: as §2

KRAS G12D = KRAS G12D (Homo sapiens, UniProt P01116+P62937, G12D); experiment: as above; format: biochemical; settings: read-out: KRAS G12D FRET data, IC50
Chain of KRAS G12D (P01116 1-169 isoform P01116-2 G12D limits assumed): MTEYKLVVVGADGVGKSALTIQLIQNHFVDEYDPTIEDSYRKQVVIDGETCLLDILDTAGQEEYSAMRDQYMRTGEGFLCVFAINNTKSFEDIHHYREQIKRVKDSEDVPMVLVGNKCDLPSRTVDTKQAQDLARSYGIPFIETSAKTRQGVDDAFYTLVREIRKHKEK
Chain of KRAS G12D (P62937 whole entry): as the sequence (P62937 whole entry) above
In short: as §2

NRAS G12C = NRAS G12C (Homo sapiens, UniProt P01111+P62937, G12C); experiment: as above; format: biochemical; settings: NRAS G12C; read-out: NRAS G12C FRET data IC50
Chain of NRAS G12C (P01111 whole entry G12C): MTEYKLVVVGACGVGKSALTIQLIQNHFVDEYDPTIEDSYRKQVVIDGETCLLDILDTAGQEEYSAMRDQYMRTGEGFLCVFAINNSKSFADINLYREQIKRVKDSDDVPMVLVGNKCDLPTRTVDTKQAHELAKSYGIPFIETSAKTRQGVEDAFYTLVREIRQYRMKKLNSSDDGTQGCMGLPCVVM
Chain of NRAS G12C (P62937 whole entry): as the sequence (P62937 whole entry) above

KRAS G12S = KRAS G12S (Homo sapiens, UniProt P01116+P62937, G12S); experiment: as above; format: biochemical; settings: read-out: KRAS G12S FRET data, IC50
Chain of KRAS G12S (P01116 1-169 isoform P01116-2 G12S limits assumed): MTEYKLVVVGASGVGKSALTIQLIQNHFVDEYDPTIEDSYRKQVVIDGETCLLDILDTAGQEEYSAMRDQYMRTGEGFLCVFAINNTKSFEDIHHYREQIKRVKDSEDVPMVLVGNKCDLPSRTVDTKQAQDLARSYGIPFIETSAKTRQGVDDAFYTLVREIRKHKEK
Chain of KRAS G12S (P62937 whole entry): as the sequence (P62937 whole entry) above
In short: as §2

KRAS Q61H = KRAS Q61H (Homo sapiens, UniProt P01116+P62937, Q61H); experiment: as above; format: biochemical; settings: KRAS Q61H; read-out: KRAS Q61H FRET data IC50
Chain of KRAS Q61H (P01116 1-169 isoform P01116-2 Q61H limits assumed): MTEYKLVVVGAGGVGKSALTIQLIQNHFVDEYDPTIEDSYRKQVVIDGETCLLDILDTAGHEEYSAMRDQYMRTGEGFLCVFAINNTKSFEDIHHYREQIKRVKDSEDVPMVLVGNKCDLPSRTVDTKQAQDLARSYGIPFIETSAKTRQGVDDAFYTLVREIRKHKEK
Chain of KRAS Q61H (P62937 whole entry): as the sequence (P62937 whole entry) above
In short: (§3)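 TR-FRET in 25 mM HEPES pH 7.3, 100 mM NaCl, 5 mM MgCl2, 0.1% BSA: 25 μM Cyclophilin A, 12.5 nM His6-Ras-GMPPNP, 50 nM GST-BRAF RBD with compound (10-point 3-fold series from 30 μM), 3 h at 25° C. Anti-His Eu/anti-GST APC added, 1.5 h more; IC50 from decreased FRET ratio versus DMSO.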

NRAS Q61K = NRAS Q61K (Homo sapiens, UniProt P01111+P62937, Q61K); experiment: as above; format: biochemical; settings: NRAS Q61K; read-out: NRAS Q61K FRET data IC50
Chain of NRAS Q61K (P01111 whole entry Q61K): as the sequence (P01111 whole entry G12C) above, with C12G, Q61K counted along it
Chain of NRAS Q61K (P62937 whole entry): as the sequence (P62937 whole entry) above
In short: as §3

NRAS WT = NRAS WT (Homo sapiens, UniProt P01111+P62937); experiment: as above; format: biochemical; settings: NRAS WT; read-out: NRAS WT FRET data IC50
Chain of NRAS WT (P01111 whole entry): as the sequence (P01111 whole entry G12C) above, with C12G counted along it
Chain of NRAS WT (P62937 whole entry): as the sequence (P62937 whole entry) above
In short: as §3

NRAS Q61R = NRAS Q61R (Homo sapiens, UniProt P01111+P62937, Q61R); experiment: as above; format: biochemical; settings: NRAS Q61R; read-out: NRAS Q61R FRET data IC50
Chain of NRAS Q61R (P01111 whole entry Q61R): as the sequence (P01111 whole entry G12C) above, with C12G, Q61R counted along it
Chain of NRAS Q61R (P62937 whole entry): as the sequence (P62937 whole entry) above
In short: as §3

Compound | IC50 (NCI-H358 (K-Ras G12C)) [nM] | IC50 (Capan-1 (K-Ras G12V)) [nM] | IC50 (KRAS G13D) [nM] | IC50 (KRAS G13C) [nM] | IC50 (KRAS G12C) [nM] | IC50 (KRAS G12V) [nM] | IC50 (KRAS WT) [nM] | IC50 (KRAS G12D) [nM] | IC50 (NRAS G12C) [nM] | IC50 (KRAS G12S) [nM] | IC50 (KRAS Q61H) [nM] | IC50 (NRAS Q61K) [nM] | IC50 (NRAS WT) [nM] | IC50 (NRAS Q61R) [nM]
CCn1c(-c2cccnc2[C@H](C)OC)c2c3cc(ccc31)-c1csc(n1)C[C@H](NC(=O)[C@H](C(C)C)N(C)C(=O)N1CC(C(C)(C)OC)C1)C(=O)N1CCC[C@H](N1)C(=O)OCC(C)(C)C2 (atropisomer, axis not shown) [Example A614] | 10 to 100 | 10 to 100 | 100 to 1000 | 100 to 1000 | 10 to 100 | 100 to 1000 | 100 to 1000 | 100 to 1000 | 10 to 100 | 100 to 1000 | 10 to 100 | 10 to 100 | 100 to 1000 | 100 to 1000
CCn1c(-c2cccnc2[C@H](C)OC)c2c3cc(ccc31)-c1csc(n1)C[C@H](NC(=O)[C@H](C(C)C)N(C)C(=O)N(C)C)C(=O)N1CCC[C@H](N1)C(=O)OCC(C)(C)C2 (racemic) [Example A136] | < 10 | 10 to 100 | 100 to 1000 | 100 to 1000 | 10 to 100 | 100 to 1000 | 100 to 1000 | 100 to 1000 | 10 to 100 | 100 to 1000 | 10 to 100 | 10 to 100 | 10 to 100 | 10 to 100
CCn1c(-c2cccnc2[C@H](C)OC)c2c3cc(ccc31)-c1cc(O)cc(c1)C[C@H](NC(=O)[C@H](C(C)C)N(C)C(=O)C1(C#N)CC1)C(=O)N1CCC[C@H](N1)C(=O)OCC(C)(C)C2 (racemic) [Example A159] | < 10 | 10 to 100 | 10 to 100 | 10 to 100 | 10 to 100 | 10 to 100 | 10 to 100 | 10 to 100 | 10 to 100 | 10 to 100 | < 10 | 10 to 100 | 10 to 100 | 10 to 100
CCn1c(-c2cccnc2[C@H](C)OC)c2c3cc(ccc31)-c1csc(n1)C[C@H](NC(=O)[C@H](C(C)C)N(C)C(=O)N1CC(N(C)C)C1)C(=O)N1CCC[C@H](N1)C(=O)OCC(C)(C)C2 (racemic) [Example A170] | 10 to 100 | 10 to 100 | 100 to 1000 | 100 to 1000 | 100 to 1000 | 100 to 1000 | 100 to 1000 | 1000 to 10000 | 100 to 1000 | 100 to 1000 | 100 to 1000 | 10 to 100 | 100 to 1000 | 100 to 1000
CCn1c(-c2cccnc2[C@H](C)OC)c2c3cc(ccc31)-c1cc(O)cc(c1)C[C@H](NC(=O)[C@H](C(C)C)N(C)C(=O)[C@H]1C[C@@H]1O)C(=O)N1CCC[C@H](N1)C(=O)OCC(C)(C)C2 (single isomer, unassigned) [Example A346] | 100 to 1000 | 100 to 1000 | 100 to 1000 | 10 to 100 | 10 to 100 | 100 to 1000 | 10 to 100 | 100 to 1000 | 10 to 100 | 100 to 1000 | 10 to 100 | 100 to 1000 | 10 to 100 | 100 to 1000
CCn1c(-c2cc(N3CCN(C)CC3)cnc2[C@H](C)OC)c2c3cc(ccc31)-c1csc(n1)C[C@H](NC(=O)[C@H](C(C)C)N(C)C(=O)[C@H]1CCNC1=O)C(=O)N1CCC[C@H](N1)C(=O)OCC(C)(C)C2 (single isomer, unassigned) [Example A449] | 100 to 1000 | 100 to 1000 | 1000 to 10000 | 100 to 1000 | 100 to 1000 | 1000 to 10000 | 100 to 1000 | 1000 to 10000 | 100 to 1000 | 1000 to 10000 | 100 to 1000 | 100 to 1000 | 100 to 1000 | 100 to 1000
CCn1c(-c2cccnc2[C@H](C)OC)c2c3cc(ccc31)-c1csc(n1)C[C@H](NC(=O)[C@H](C(C)C)N(C)C(=O)N1CC[C@]3(CCN(C)C3=O)C1)C(=O)N1CCC[C@H](N1)C(=O)OCC(C)(C)C2 (single isomer, unassigned) [Example A461] | 100 to 1000 | 100 to 1000 | 1000 to 10000 | 1000 to 10000 | 100 to 1000 | 1000 to 10000 | 100 to 1000 | 1000 to 10000 | 100 to 1000 | 1000 to 10000 | 100 to 1000 | 100 to 1000 | 1000 to 10000 | 100 to 1000
CCn1c(-c2cccnc2[C@H](C)OC)c2c3cc(ccc31)-c1csc(n1)C[C@H](NC(=O)[C@H](C(C)C)N(C)C(=O)N1CC([C@@H](C)CO)C1)C(=O)N1CCC[C@H](N1)C(=O)OCC(C)(C)C2 (single isomer, unassigned) [Example A487] | < 10 | 10 to 100 | 100 to 1000 | 100 to 1000 | 10 to 100 | 10 to 100 | 10 to 100 | 100 to 1000 | 10 to 100 | 100 to 1000 | 10 to 100 | 10 to 100 | 10 to 100 | 10 to 100
CCn1c(-c2cccnc2[C@H](C)OC)c2c3cc(ccc31)-c1csc(n1)C[C@H](NC(=O)[C@H](C(C)C)N(C)C(=O)N1CC[C@@]3(CCN(C)C3=O)C1)C(=O)N1CCC[C@H](N1)C(=O)OCC(C)(C)C2 (single isomer, unassigned) [Example A495] | 10 to 100 | 100 to 1000 | 1000 to 10000 | 100 to 1000 | 100 to 1000 | 100 to 1000 | 100 to 1000 | 1000 to 10000 | 100 to 1000 | 100 to 1000 | 100 to 1000 | 100 to 1000 | 100 to 1000 | 100 to 1000
